# Patent US10179122B2, “Use of melatonin” (priority 2011, dated 2019)
# System: hangover symptoms after consumption of alcoholic beverages
# Test: Hangover symptoms after alcohol consumption, blinded subjects given a sublingual melatonin strip before sleep
# Format: in vivo, human
# Protocol: Subjects were blind to all the experimental treatments.
# A person was fed alcoholic beverages containing ethyl alcohol until the blood alcohol concentration reached 310 mg/dL at a time of 10 pm. Next, the person drank 1 l of water and immediately after that was administered a sublingual strip comprising 2.5 mg of melatonin in non-retard form. After that the person went to sleep. […] This experiment was repeated with 20 other persons with the same effect.
# For comparison, the same experiment was conducted with administration of the sublingual strip without melatonin as a placebo. 19 out of 20 persons reported severe typical hangover symptoms like headaches.
compound,measurement,setting,value
COc1ccc2[nH]cc(CCNC(C)=O)c2c1 [melatonin],typical hangover symptoms after 8 h of physiologic sleep,"one person, blood alcohol concentration 310 mg/dL at 10 pm, 1 l of water, then sublingual strip with 2.5 mg melatonin in non-retard form, assessed after 8 h sleep",did not suffer from any typical hangover symptoms
same,typical hangover symptoms after 8 h of physiologic sleep (experiment repeated),"repeated with 20 other persons, same protocol (310 mg/dL, 1 l of water, sublingual strip with 2.5 mg melatonin in non-retard form, 8 h sleep)",same effect
